The source of these data is patent publication US12365651B2, “Use of pirfenidone and derivatives for modulation of B lymphocyte activity and organ protection from acute tissue damage” (Washington University, priority 2017, dated 2025).

One data set concerns naïve WT hearts. Put plainly: Flow cytometry of naïve WT hearts after Pirfenidone for 1 week. Particulars: Pirfenidone 1 week. In kind it is in vivo, mouse. An excerpt:
Accordingly, we performed FACS analysis 4 days after DT injection.
In order to administer Pirfenidone, mice were fed powdered chow mixed with Pirfenidone (eNovation Chemicals, Bridgewater, NJ, USA, Cat #D404655) at 0.5% in weight or powdered chow alone. […] Unless specifically noted, mice were switched to a diet enriched with Pirfenidone 3 days prior to DT-induced injury or I/R-injury, and maintained on this diet throughout the duration of the experiments. In parallel studies, we fed mice normal chow prior to I/R injury and then administered Pirfenidone acutely at the time of cardiac injury. For these latter studies, mice were injected i.p. with diluent (200 μL phosphate-buffered solution [PBS]) or i.p. with Pirfenidone (200 μL of Pirfenidone [5 mg/mL] in PBS) after reperfusion and the morning after I/R injury (2 injections total). They were switched to Pirfenidone-enriched diet or control diet the evening of I/R injury and maintained on the same diet until completion of the experiment.
For flow cytometry experiments, mice were euthanized in a CO2 chamber and the hearts were perfused with cold PBS, carefully dissected from extracardiac tissue under a stereo microscope, finely minced, suspended in 3 ml of DMEM, and then digested with 120 U of DNAse (Sigma), 180 U of hyaluronidase (Sigma) and 1350 U of Collagenase (Sigma) for 60 minutes at 37Co. The digested material was filtered through 40 μm filters and pelleted by centrifugation (250×g for 3 minutes at 4° C.) in HBSS supplemented with 2% FCS+0.2% bovine serum albumin (BSA). Red blood cells were lysed in ACK lysis buffer (Invitrogen) for 15′ on ice and the remaining cells were resuspended in 300 μL of FACS buffer (PBS with 2% FCS and 2 mM EDTA). Cultured cells were collected for FACS analysis as described above and resuspended in 300 μL of FACS buffer. Samples were labeled with the fluorescently conjugated antibodies outlined in the table below. Cells were stained for 45 minutes on ice, and washed in FACS buffer prior to analysis. All antibodies from Biolegend were used at 0.2 μL per 300 μL sample, while antibodies from BD biosciences were used at 0.4 μL per 300 μL sample. FACS was performed on Beckton Dickinson analyzers (LSRII, Canto, X20 or Fortessa). Compensation controls were generated using UltraComp ebeads (Invitrogen, Carlsbad, CA, USA) and verified on single color control samples obtained staining primary splenocytes. For flow cytometry experiments that involved the DT injury model, we collected serum at the time of terminal sacrifice for quantification of troponin. […] Cell sorting was performed using a FACSAria sorting instrument (Beckton Dickinson) at the Washington University Department of Pathology Flow Cytometry and Sorting Core.
For orientation: Flow cytometry measures light scatter and fluorescence of single cells or particles in a stream.

Data set [1] concerns Peritoneal derived inflammatory cells. Put plainly: In vitro immunomodulatory effect of tested PEG compounds (CD86 on CD19+ cells, LPS). Particulars: LPS 100 ng/ml, 24 h, various concentrations. In kind it is cell-based, mouse. The protocol: Peritoneal derived inflammatory cells were collected on day for post intraperitoneal injection of Thyoglicollate. Cells were cultured for 24 h in baseline condition (control), in the presence of LPS 100 ng/ml (LPS) or in the presence of LPS 100 ng/ml and various concentrations of different forms of Pegylated Pirfenidone (named C2 and C3 in FIG. 11A and C4 to C6 in FIG. 11B)). After the 24 h in culture cells were collected and analyzed via flow cytometry to assess the expression of CD86 on CD19+ cells (B lymphocytes). […] FIG. 11C reports the molecular weights of the tested forms of PEGylated Pirfenidone and the molecular weight (MW) ration between the tested compound and Pirfenidone).

Data set [2] can be described thus: Plasma pharmacokinetics after IV or PO administration. In kind it is in vivo. Particulars: SD Rat, PO 40 mg/kg.

Where “and” joins values, the source holds several entries; their conditions need not be identical. Equal entries are not always repeated.

On to `Cc1ccc(=O)n(-c2ccccc2)c1` [Pirfenidone, 5 methyl-1-phenyl-2-[H] pyridone], for which the “number of CD45+ cells/mg tissue” value in the data set on naïve WT hearts (p=0.53) is given as “no significant effect”. The “Ly6C+CD64 low/− monocytes” value with naïve WT hearts (p=0.81) was “no significant effect”. Further, in the data set on naïve WT hearts (p=0.82), the “CD64+Ly6Clow/− macrophages” value is on record as “no significant effect” and the “Ly6G+ neutrophils” value is on record as “no significant effect”. Also, the “CD19+ B-lymphocytes” value in the data set on naïve WT hearts (p=0.94) is “no significant effect”. For the same compound, the “expression of CD86 on CD19+ cells” value in data set [1] is “reduced”. Further, the “AUMC0-t, Mean” value in data set [2] is on record as 14976 h*h*ng/mL. Further, the “Plasma concentrations of Pirfenidone” value in data set [2] (8 h, individual rats 7-9, 40 mg/kg) is “BLOQ (Below lower limit of quantification (1 ng/mL)) and 23.6 ng/ml and 107 ng/ml”. The time of peak concentration (Tmax) (as a rule, the time at which the peak concentration occurs) in data set [2] (Sprague-Dawley, plasma, individual rats 7-9) came out at 15 min.
